Experimental data: the supplement of paper PMC10307832

How the values were obtained:
Assay in all cases: relative viability (nuclei count vs DMSO), 5 days (fraction); higher = more cells survive
Seliciclib + Bortezomib = compound: CC[C@H](CO)Nc1nc(NCc2ccccc2)c2ncn(C(C)C)c2n1 [Seliciclib] + CC(C)C[C@H](NC(=O)[C@H](Cc1ccccc1)NC(=O)c1cnccn1)B(O)O [Bortezomib] (partner 0.002 µM)
In short: (§1)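 Each reported value is a median over duplicate plates. It expresses relative viability: treated-well nuclei count divided by vehicle-well nuclei count. Lung cancer cell lines in 1536-well plates were dosed by pin tool a day after seeding, alone with one drug or with a fixed anchor-drug dose plus five library-drug doses (not always all listed) in √10 steps, and nuclei were counted after 5 days.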

Seliciclib + Navitoclax = compound: CC[C@H](CO)Nc1nc(NCc2ccccc2)c2ncn(C(C)C)c2n1 [Seliciclib] + CC1(C)CCC(c2ccc(Cl)cc2)=C(CN2CCN(c3ccc(C(=O)NS(=O)(=O)c4ccc(N[C@H](CCN5CCOCC5)CSc5ccccc5)c(S(=O)(=O)C(F)(F)F)c4)cc3)CC2)C1 [Navitoclax] (partner 0.5 µM)
In short: as §1

Seliciclib + Luminespib = compound: CC[C@H](CO)Nc1nc(NCc2ccccc2)c2ncn(C(C)C)c2n1 [Seliciclib] + CCNC(=O)c1noc(-c2cc(C(C)C)c(O)cc2O)c1-c1ccc(CN2CCOCC2)cc1 [Luminespib] (partner 0.01 µM)
In short: as §1

Seliciclib + Dasatinib = compound: CC[C@H](CO)Nc1nc(NCc2ccccc2)c2ncn(C(C)C)c2n1 [Seliciclib] + Cc1nc(Nc2ncc(C(=O)Nc3c(C)cccc3Cl)s2)cc(N2CCN(CCO)CC2)n1 [Dasatinib] (partner 0.075 µM)
In short: as §1

Cell Line | relative viability (Seliciclib + Bortezomib; first compound 0.08 µM) | relative viability (Seliciclib + Bortezomib; first compound 0.253 µM) | relative viability (Seliciclib + Bortezomib; first compound 0.8 µM) | relative viability (Seliciclib + Bortezomib; first compound 2.53 µM) | relative viability (Seliciclib + Bortezomib; first compound 8 µM) | relative viability (Seliciclib + Navitoclax; first compound 0.08 µM) | relative viability (Seliciclib + Navitoclax; first compound 0.253 µM) | relative viability (Seliciclib + Navitoclax; first compound 0.8 µM) | relative viability (Seliciclib + Navitoclax; first compound 2.53 µM) | relative viability (Seliciclib + Navitoclax; first compound 8 µM) | relative viability (Seliciclib + Luminespib; first compound 0.253 µM) | relative viability (Seliciclib + Luminespib; first compound 0.8 µM) | relative viability (Seliciclib + Luminespib; first compound 2.53 µM) | relative viability (Seliciclib + Luminespib; first compound 8 µM) | relative viability (Seliciclib + Dasatinib; first compound 0.08 µM) | relative viability (Seliciclib + Dasatinib; first compound 0.253 µM) | relative viability (Seliciclib + Dasatinib; first compound 0.8 µM) | relative viability (Seliciclib + Dasatinib; first compound 2.53 µM) | relative viability (Seliciclib + Dasatinib; first compound 8 µM) | relative viability (Seliciclib + Luminespib; first compound 0.08 µM)
EBC-1 | 0.554 | 0.553 | 0.623 | 0.466 | 0.379 | 0.447 | 0.417 | 0.402 | 0.333 | 0.231 | – | – | – | – | – | – | – | – | – | –
EKVX | 1.03 | 1.07 | 0.985 | 0.854 | 0.861 | 0.951 | 1.1 | 0.865 | 0.777 | 0.702 | 1.03 | 0.794 | 0.821 | 0.642 | 0.53 | 0.55 | 0.573 | 0.47 | 0.493 | –
EMC-BAC-2 | 1.05 | 0.91 | 1.11 | 0.836 | 1.07 | 1.13 | 1.11 | 1.1 | 1.27 | 1.09 | 1.02 | 1.15 | 1.16 | 1.11 | 0.305 | 0.288 | 0.399 | 0.218 | 0.277 | 1.15
EPLC-272H | 0.872 | 0.676 | 0.991 | 1.03 | 0.907 | 1.24 | 0.987 | 1.12 | 1.28 | 1.12 | 0.204 | 0.214 | 0.177 | 0.231 | 0.329 | 0.298 | 0.408 | 0.183 | 0.266 | 0.297
H3255 | 0.833 | 0.828 | 0.753 | 0.605 | 0.625 | 0.656 | 0.558 | 0.512 | 0.436 | 0.46 | 1.05 | 0.94 | 0.833 | 0.917 | 0.341 | 0.447 | 0.335 | 0.279 | 0.324 | 0.868
HARA | 1.09 | 1.27 | 1.04 | 1.25 | 1.03 | 1.13 | 1.23 | 1.11 | 1.16 | 1.07 | 0.764 | 0.65 | 1.12 | 0.581 | 0.288 | 0.274 | 0.319 | 0.228 | 0.245 | 0.727
HCC-15 | 1.05 | 1.1 | 0.898 | 0.966 | 0.826 | 0.719 | 0.77 | 0.677 | 0.718 | 0.491 | 0.386 | 0.304 | 0.33 | 0.309 | 0.645 | 0.633 | 0.461 | 0.512 | 0.448 | 0.275
HCC-44 | 0.841 | 0.885 | 0.82 | 0.758 | 0.881 | 1.05 | 0.934 | 0.957 | 1.07 | 1.03 | 1.07 | 1.01 | 0.997 | 0.726 | – | – | – | – | – | 0.913
HCC-78 | 0.532 | 0.471 | 0.433 | 0.373 | 0.396 | 0.73 | 0.969 | 0.738 | 0.703 | 0.557 | – | – | – | – | 0.427 | 0.416 | 0.371 | 0.259 | 0.28 | –
